In ChEMBL document CHEMBL5055651, “Synthesis of small molecules targeting paclitaxel-induced MyD88 expression in triple-negative breast cancer cell lines” (Bioorg Med Chem, 2021):

Assays:
[1] = test system: MDA-MB-231; test: Cytotoxicity against human MDA-MB-231 cells expressing TLR4 assessed as reduction in cell viability measured after 96 hrs by MTT assay; assay type: functional, cell-based; settings: MDA-MB-231, 96 h
[2] = test system: HCC1806; test: Cytotoxicity against human HCC1806 cells assessed as reduction in cell viability measured after 96 hrs by MTT assay; assay type: functional, cell-based; settings: HCC1806, 96 h
[3] = test system: MCF7; test: Cytotoxicity against human MCF7 cells expressing TLR4 assessed as reduction in cell viability measured after 96 hrs by MTT assay; assay type: functional, cell-based; settings: MCF7, 96 h
[4] = test system: BEAS-2B; test: Cytotoxicity against human BEAS-2B cells reduction in cell viability measured after 96 hrs by MTT assay; assay type: cell-based
[5] = Effect on MyD88 expression in human MDA-MB-231 cells expressing TLR4 at 0.1 to 10 uM after 24 hrs by ELISA; assay type: cell-based; settings: mda-mb-231, 24 h, dose 0.1-10 µM
[6] = Suppression of MyD88 expression in human MDA-MB-231 cells expressing TLR4 at 0.1 uM pretreated with compounds for 24 hrs followed by PTX challenge and measured after 24 hrs by ELISA relative to control; assay type: functional; settings: time 48 hrs
[7] = Suppression of MyD88 expression in human MDA-MB-231 cells expressing TLR4 at 1 uM pretreated with compounds for 24 hrs followed by PTX challenge and measured after 24 hrs by ELISA relative to control; assay type: functional; settings: time 48 hrs
[8] = Suppression of MyD88 expression in human MDA-MB-231 cells expressing TLR4 at 10 uM pretreated with compounds for 24 hrs followed by PTX challenge and measured after 24 hrs by ELISA relative to control; assay type: functional; settings: time 48 hrs
[9] = test system: MDA-MB-231; test: Cytotoxicity against human MDA-MB-231 cells expressing TLR4 assessed cell growth inhibition at 10 uM measured after 96 hrs by MTT assay relative to control; assay type: functional; settings: read-out: GI
[10] = test system: HCC1806; test: Cytotoxicity against human HCC1806 cells assessed cell growth inhibition at 10 uM measured after 96 hrs by MTT assay relative to control; assay type: functional; settings: read-out: GI
[11] = test system: MCF7; test: Cytotoxicity against human MCF7 cells expressing TLR4 assessed cell growth inhibition at 10 uM measured after 96 hrs by MTT assay relative to control; assay type: functional; settings: read-out: GI
[12] = test system: MDA-MB-231; test: Cytotoxicity against human MDA-MB-231 cells expressing TLR4 assessed as cell viability at 10 uM measured after 96 hrs by MTT assay relative to control; assay type: functional; settings: read-out: Activity
[13] = test system: HCC1806; test: Cytotoxicity against human HCC1806 cells assessed as cell viability at 10 uM measured after 96 hrs by MTT assay relative to control; assay type: functional; settings: read-out: Activity
[14] = test system: MCF7; test: Cytotoxicity against human MCF7 cells expressing TLR4 assessed as cell viability at 10 uM measured after 96 hrs by MTT assay relative to control; assay type: functional; settings: read-out: Activity
[15] = Selectivity index, ratio of IC50 for human BEAS-2B cells to IC50 for human MDA-MB-231 cells; assay type: toxicity; settings: BEAS-2B cells versus MDA-MB-231 cells, read-out: Selectivity Index
[16] = Selectivity index, ratio of IC50 for human BEAS-2B cells to IC50 for human MCF7 cells; assay type: toxicity; settings: BEAS-2B cells versus MCF7 cells, read-out: Selectivity Index
[17] = test system: MDA-MB-231; test: Cytotoxicity against human MDA-MB-231 cells expressing TLR4 assessed as growth inhibition measured after 96 hrs by MTT assay; assay type: functional, cell-based; settings: MDA-MB-231, 96 h
[18] = test system: HCC1806; test: Cytotoxicity against human HCC1806 cells assessed as growth inhibition measured after 96 hrs by MTT assay; assay type: cell-based; settings: HCC1806, 96 h

| Activity [5] [%] | Structure (SMILES) | IC50 [1] [nM] | IC50 [2] [nM] | IC50 [3] [nM] | IC50 [4] [nM] | Activity [6] [%] | Activity [7] [%] | Activity [8] [%] | inhibition of growth at 10 µM [9] [%] | inhibition of growth at 10 µM [10] [%] | inhibition of growth at 10 µM [11] [%] | viability at 10 µM [12] [%] | viability at 10 µM [13] [%] | viability at 10 µM [14] [%] | selectivity ratio [15] | selectivity ratio [16] | IC50 [17] [nM] | IC50 [18] [nM] |
| --- | --- | --- | --- | --- | --- | --- | --- | --- | --- | --- | --- | --- | --- | --- | --- | --- | --- | --- |
| 23 | O=C(C1=C(O)/C(=C/c2ccc(C(F)(F)F)cc2)CCC1)c1ccccc1 | 6500 | 5330 | 2300 | 3800 | 17.64 | 24.77 | 27.94 | 8 | 8 | 8 | – | – | – | – | – | – | – |
| – | COc1cc(C)ccc1/C=C1\CCCC(C(=O)c2ccccc2)=C1O | – | – | – | – | – | – | – | – | – | – | 87 | 87 | 87 | – | – | – | – |
| – | CC(=O)O[C@H]1C(=O)[C@@]2(C)[C@H]([C@H](OC(=O)c3ccccc3)[C@]3(O)C[C@H](OC(=O)[C@H](O)[C@@H](NC(=O)c4ccccc4)c4ccccc4)C(C)=C1C3(C)C)[C@]1(OC(C)=O)CO[C@@H]1C[C@@H]2O [PACLITAXEL] | 40 | 9 | 30 | 8 | – | – | – | – | – | – | – | – | – | 0.2 | 0.26 | 27 | 8 |
